Common to all, as to type: cell-based
In experiment [1] the test system is SW620 (KRAS G12V). The experiment in a line: Cell proliferation assay (CellTiter-Glo, 72 hours), SW620. Conditions: Homo sapiens, SW-620, 72 h, 384-well, CellTiter-Glo 2.0. The method, then:
(§1) Two thousand KRAS mutant cells per well were seeded in 384-well white plate and then treated with indicated compounds for 72 hours at 37° C. and 5% CO2. Cell proliferation was measured using CellTiter-Glo 2.0 luciferase-based ATP detection assay (Promega, Madison, WI) following the manufacturer's protocol. IC50 values were determined using Prism software (GraphPad Software, San Diego, CA).

Experiment [2] concerns GP2D (KRAS G12D). Kind of experiment: Cell proliferation assay (CellTiter-Glo, 72 hours), GP2D. The note with it: GP2d, 72 h, 384-well, CellTiter-Glo 2.0. The method, then: as §1
The subject of experiment [3] is AGS (G12D). Kind of experiment: Cell proliferation assay (CellTiter-Glo, 72 hours), AGS. The note with it: 72 h, 384-well, CellTiter-Glo 2.0. The method, then:
as §1

Some results are limits rather than exact numbers.

In the case of `C#Cc1c(F)ccc2cc(O)cc(-c3nc4c5c(nc(OC[C@@]67CCCN6C[C@H](F)C7)nc5c3F)N3CC(F)CC[C@H]3CO4)c12` (stereo partly drawn) [Example 105, 4-[(4R,7S)-4,13-difluoro-16-[[(2R,8S)-2-fluoro-1,2,3,5,6,7-hexahydropyrrolizin-8-yl]methoxy]-9-oxa-2,11,15,17-tetrazatetracyclo[8.7.1.0^2,7.0^14,18]octadeca-1 (17),10 (18),11,13,15-pentaen-12-yl]-5-ethynyl-6-fluoro-naphthalen-2-ol], the IC50 in experiment [1] is 86.2 nM; in experiment [2], 21.6 nM; in experiment [3], 81 nM.

As for `C#Cc1c(F)ccc2cc(O)cc(-c3nc4c5c(nc(OC[C@@]67CCCN6C[C@H](F)C7)nc5c3F)N3C=CCC[C@H]3CO4)c12` [Example 107, 5-ethynyl-6-fluoro-4-[(7S)-13-fluoro-16-[[(2R,8S)-2-fluoro-1,2,3,5,6,7-hexahydropyrrolizin-8-yl]methoxy]-9-oxa-2,11,15,17-tetrazatetracyclo [8.7.1.0^2,7.0^14,18]octadeca-1 (17),3,10 (18),11,13,15-hexaen-12-yl]naphthalen-2-ol], the IC50 is 1040 nM in experiment [1], 749 nM in experiment [2] and 1130 nM in experiment [3].

`C#Cc1c(F)ccc2cc(O)cc(-c3nc4c5c(nc(OC[C@@]67CCCN6C[C@H](F)C7)nc5c3F)N(CC)CCO4)c12` [Example 108, 4-(10-ethyl-4-fluoro-2-{[(2R,7aS)-2-fluorotetrahydro-1H-pyrrolizin-7a(5H)-yl]methoxy}-9,10-dihydro-8H-7-oxa-1,3,6,10-tetraazacyclohepta[1,2,3-de]naphthalen-5-yl)-5-ethynyl-6-fluoronaphthalen-2-ol]: the figures for the IC50 in experiment [1], in experiment [2] and in experiment [3] were 195 nM, 13.8 nM and 42.7 nM, respectively.

In the case of `CCc1c(F)ccc2cc(O)cc(-c3nc4c5c(nc(OC[C@@]67CCCN6C[C@H](F)C7)nc5c3F)NCCC4)c12` [Example 117, 5-ethyl-6-fluoro-4-(4-fluoro-2-{[(2R,7aS)-2-fluorotetrahydro-1H-pyrrolizin-7a(5H)-yl]methoxy}-7,8,9,10-tetrahydro-1,3,6,10-tetraazacyclohepta[1,2,3-de]naphthalen-5-yl)naphthalen-2-ol], the IC50 in experiment [1], in experiment [2] and in experiment [3] was more than 3000 nM throughout.

In the case of `C#Cc1c(F)ccc2cc(O)cc(-c3nc4c5c(nc(OC[C@@]67CCCN6C[C@H](F)C7)nc5c3F)N3C[C@@](C)(O)CC[C@H]3CO4)c12` [Example 120, (8aS,11S)-5-(8-ethynyl-7-fluoro-3-hydroxynaphthalen-1-yl)-4-fluoro-2-{[(2R,7aS)-2-fluorotetrahydro-1H-pyrrolizin-7a(5H)-yl]methoxy}-11-methyl-8,8a,9,10,11,12-hexahydro-7-oxa-1,3,6,12a-tetraazabenzo[4,5]cyclohepta[1,2,3-de]naphthalen-11-ol], the IC50 in experiment [1], in experiment [2] and in experiment [3] was more than 3000 nM in each case.

With `CCc1c(F)ccc2cc(O)cc(-c3nc4c5c(nc(OC[C@@]67CCCN6C[C@H](F)C7)nc5c3F)N(C)[C@@H](C)CO4)c12` [Example 123, 5-ethyl-6-fluoro-4-[(9S)-4-fluoro-2-{[(2R,7aS)-2-fluorotetrahydro-1H-pyrrolizin-7a(5H)-yl]methoxy}-9,10-dimethyl-9,10-dihydro-8H-7-oxa-1,3,6,10-tetraazacyclohepta[1,2,3-de]naphthalen-5-yl]naphthalen-2-ol], the IC50 turned out to be 150 nM in experiment [1], 40.5 nM in experiment [2] and 375 nM in experiment [3].

As for `CCc1c(F)ccc2cc(O)cc(-c3nc4c5c(nc(OC[C@@]67CCCN6C[C@H](F)C7)nc5c3F)N[C@@H](CO)CO4)c12` [Example 124, 5-ethyl-6-fluoro-4-[(9S)-4-fluoro-2-{[(2R,7aS)-2-fluorotetrahydro-1H-pyrrolizin-7a(5H)-yl]methoxy}-9-(hydroxymethyl)-9,10-dihydro-8H-7-oxa-1,3,6,10-tetraazacyclohepta[1,2,3-de]naphthalen-5-yl]naphthalen-2-ol], the IC50 amounted to 3320 nM in experiment [1], 1760 nM in experiment [2] and 3310 nM in experiment [3].

As to `C#Cc1c(F)ccc2cc(O)cc(-c3nc4c5c(nc(OC[C@@]67CCCN6C[C@H](F)C7)nc5c3F)N(CC(F)F)[C@@H](C)CO4)c12` [Example 128, 4-[(9S)-10-(2,2-difluoroethyl)-4-fluoro-2-{[(2R,7aS)-2-fluorotetrahydro-1H-pyrrolizin-7a(5H)-yl]methoxy}-9-methyl-9,10-dihydro-8H-7-oxa-1,3,6,10-tetraazacyclohepta[1,2,3-de]naphthalen-5-yl]-5-ethynyl-6-fluoronaphthalen-2-ol], the IC50 in experiment [1] worked out at 6.31 nM; in experiment [2], 5.8 nM; in experiment [3], 14.6 nM.

Regarding `C#Cc1c(F)ccc2cc(O)cc(-c3nc4c5c(nc(OC[C@@]67CCCN6C[C@H](F)C7)nc5c3F)N(C)C3(CCOC3)CO4)c12` (stereo partly drawn) [Example 129, 5-ethynyl-6-fluoro-4-[6-fluoro-3-[[(2R,8S)-2-fluoro-1,2,3,5,6,7-hexahydropyrrolizin-8-yl]methoxy]-13-methyl-spiro[10-oxa-2,4,8,13-tetrazatricyclo[7.4.1.05,14]tetradeca-1,3,5,7,9 (14)-pentaene-12,3′-tetrahydrofuran]-7-yl]naphthalen-2-ol], the IC50 in experiment [1], in experiment [2] and in experiment [3] was more than 3000 nM each time.

On to `C#Cc1c(F)ccc2cc(O)cc(-c3nc4c5c(nc(OC[C@@]67CCCN6C[C@H](F)C7)nc5c3F)N(C[C@@H](C)O)[C@@H](C)CO4)c12` [Example 130, 5-ethynyl-6-fluoro-4-((S)-4-fluoro-2-(((2R,7aS)-2-fluorotetrahydro-1H-pyrrolizin-7a(5H)-yl)methoxy)-10-((R)-2-hydroxypropyl)-9-methyl-9,10-dihydro-8H-7-oxa-1,3,6,10-tetraazacyclohepta[de]naphthalen-5-yl)naphthalen-2-ol], for which the IC50 in experiment [1] was found to be 131 nM; in experiment [2] it was 115 nM; in experiment [3] it was 197 nM.

Turning to `CCc1c(F)ccc2cc(O)cc(-c3nc4c5c(nc(OC[C@@]67CCCN6C[C@H](F)C7)nc5c3F)N(CC(F)F)[C@@H](C)CO4)c12` [Example 131, 4-[(9S)-10-(2,2-difluoroethyl)-4-fluoro-2-{[(2R,7aS)-2-fluorotetrahydro-1H-pyrrolizin-7a(5H)-yl]methoxy}-9-methyl-9,10-dihydro-8H-7-oxa-1,3,6,10-tetraazacyclohepta[1,2,3-de]naphthalen-5-yl]-5-ethyl-6-fluoronaphthalen-2-ol], the IC50 worked out at 42.7 nM in experiment [1], 23.9 nM in experiment [2] and 65.3 nM in experiment [3].

With `CCc1c(F)ccc2cc(O)cc(-c3nc4c5c(nc(OC[C@@]67CCCN6C[C@H](F)C7)nc5c3F)N(C)C3(CCOC3)CO4)c12` (stereo partly drawn) [Example 132, 5-ethyl-6-fluoro-4-(4-fluoro-2-{[(2R,7aS)-2-fluorotetrahydro-1H-pyrrolizin-7a(5H)-yl]methoxy}-10-methyl-8H,10H-spiro[7-oxa-1,3,6,10-tetraazacyclohepta[1,2,3-de]naphthalene-9,3′-oxolan]-5-yl)naphthalen-2-ol], the IC50 was 1380 nM in experiment [1], more than 3000 nM in experiment [2] and more than 3000 nM in experiment [3].

These data come from US20260008787A1, “FUSED RING KRAS INHIBITORS FOR TREATING DISEASE” (BLOSSOMHILL THERAPEUTICS, INC., priority 2022, published 2026).
